{"source": "patent US9827234B1", "about": "“Dose-dumping resistant controlled release dosage form” (OSMOTICA KERESKEDELMI ES SZOLGALTATO KFT, priority 2017, dated 2017)", "origin": "cited, not measured here", "key": {"[1]": {"settings": "5 mg 3× daily, rapid release tablet"}}}
{"smiles": "COC(=O)C(c1ccccc1)C1CCCCN1", "note": "(centres unmarked) [Methylphenidate, methyl 2-phenyl-2-(piperidin-2-yl)acetate]", "values": [{"measurement": "enhance the bioavailability of MPH", "setting": "consuming alcohol (ethanol), Patrick et al. 2007", "result": "up to 40%"}, {"measurement": "plasma half-life", "setting": "in vivo", "result": "2 to 3", "unit": "h"}, {"measurement": "Cmax", "setting": "[1]", "result": "4.2 ± 1.0", "unit": "ng/mL"}, {"measurement": "Tmax", "setting": "[1]", "result": "6.5 ± 1.8", "unit": "h"}, {"measurement": "T½", "setting": "[1]", "result": "3.0 ± 0.5", "unit": "h"}]}
